In patent US12303517B1, “Oral testosterone therapy” (Lipocine, Inc., priority 2016, dated 2025):

Test: Single fixed dose dosing regimen examples for safety and efficacy (serum T Cmax / Cavg criteria), with food
Format: in vivo, human
[1] = Regimen 1, QD 500 mg T13, with food with at least 10 g of fat
[2] = Regimen 2, QD 700 mg T13, with food with at least 10 g of fat
[3] = Regimen 3, QD 750 mg T13, with food with at least 10 g of fat
[4] = Regimen 4, QD 800 mg T13, with food with at least 10 g of fat
[5] = Regimen 5, QD 900 mg T13, with food with at least 10 g of fat
[6] = Regimen 6, QD 1000 mg T13, with food with at least 10 g of fat
[7] = Regimen 7, QD 1100 mg T13, with food with at least 10 g of fat
[8] = Regimen 8, QD 1150 mg T13, with food with at least 10 g of fat
[9] = Regimen 9, QD 1250 mg T13, with food with at least 10 g of fat
[10] = Regimen 10, BID-equal dose (AM/PM) 250/250 mg T13, with food with at least 10 g of fat
[11] = Regimen 11, BID-equal dose (AM/PM) 350/350 mg T13, with food with at least 10 g of fat

## CCCCCCCCCCCCC(=O)O[C@H]1CC[C@H]2[C@@H]3CCC4=CC(=O)CC[C@]4(C)[C@H]3CC[C@]12C [T13, testosterone tridecanoate]
[1]
  Cavg > 300 ng/dL ≥75% patients: No
  Cavg > 300 ng/dL ≥80% patients: No
  Cmax > 1500 ng/dL <15% patients: Yes
  Cmax > 1500 ng/dL <20% patients: Yes
  Cmax > 1800 ng/dL <5% patients: Yes
  Cmax > 1800 ng/dL <10% patients: Yes
  Cmax > 2500 ng/dL <2% patients: Yes
  Cmax > 2500 ng/dL none of patients: Yes
[2]
  Cavg > 300 ng/dL ≥75% patients: No
  Cavg > 300 ng/dL ≥80% patients: No
  Cmax > 1500 ng/dL <15% patients: Yes
  Cmax > 1500 ng/dL <20% patients: Yes
  Cmax > 1800 ng/dL <5% patients: Yes
  Cmax > 1800 ng/dL <10% patients: Yes
  Cmax > 2500 ng/dL <2% patients: Yes
  Cmax > 2500 ng/dL none of patients: Yes
[3]
  Cavg > 300 ng/dL ≥75% patients: Yes
  Cavg > 300 ng/dL ≥80% patients: No
  Cmax > 1500 ng/dL <15% patients: Yes
  Cmax > 1500 ng/dL <20% patients: Yes
[4]
  Cavg > 300 ng/dL ≥75% patients: Yes
  Cavg > 300 ng/dL ≥80% patients: Yes
[5]
  Cavg > 300 ng/dL ≥75% patients: Yes
  Cavg > 300 ng/dL ≥80% patients: Yes
  Cmax > 1500 ng/dL <15% patients: Yes
  Cmax > 1500 ng/dL <20% patients: Yes
  Cmax > 1800 ng/dL <5% patients: Yes
  Cmax > 1800 ng/dL <10% patients: Yes
  Cmax > 2500 ng/dL <2% patients: Yes
  Cmax > 2500 ng/dL none of patients: Yes
[6]
  Cavg > 300 ng/dL ≥75% patients: Yes
  Cavg > 300 ng/dL ≥80% patients: Yes
  Cmax > 1500 ng/dL <15% patients: Yes
  Cmax > 1500 ng/dL <20% patients: Yes
  Cmax > 1800 ng/dL <5% patients: Yes
  Cmax > 1800 ng/dL <10% patients: Yes
  Cmax > 2500 ng/dL <2% patients: Yes
  Cmax > 2500 ng/dL none of patients: Yes
[7]
  Cavg > 300 ng/dL ≥75% patients: Yes
  Cavg > 300 ng/dL ≥80% patients: Yes
  Cmax > 1500 ng/dL <15% patients: Yes
  Cmax > 1500 ng/dL <20% patients: Yes
  Cmax > 1800 ng/dL <5% patients: Yes
  Cmax > 1800 ng/dL <10% patients: Yes
  Cmax > 2500 ng/dL <2% patients: Yes
  Cmax > 2500 ng/dL none of patients: Yes
[8]
  Cavg > 300 ng/dL ≥75% patients: Yes
  Cavg > 300 ng/dL ≥80% patients: Yes
  Cmax > 1500 ng/dL <15% patients: No
  Cmax > 1500 ng/dL <20% patients: Yes
  Cmax > 1800 ng/dL <5% patients: Yes
  Cmax > 1800 ng/dL <10% patients: Yes
  Cmax > 2500 ng/dL <2% patients: Yes
  Cmax > 2500 ng/dL none of patients: No
[9]
  Cavg > 300 ng/dL ≥75% patients: Yes
  Cavg > 300 ng/dL ≥80% patients: Yes
  Cmax > 1500 ng/dL <15% patients: No
  Cmax > 1500 ng/dL <20% patients: No
  Cmax > 1800 ng/dL <5% patients: No
  Cmax > 1800 ng/dL <10% patients: No
  Cmax > 2500 ng/dL <2% patients: No
  Cmax > 2500 ng/dL none of patients: No
[10]
  Cavg > 300 ng/dL ≥75% patients: No
  Cavg > 300 ng/dL ≥80% patients: No
  Cmax > 1500 ng/dL <15% patients: Yes
  Cmax > 1500 ng/dL <20% patients: Yes
  Cmax > 1800 ng/dL <5% patients: Yes
  Cmax > 1800 ng/dL <10% patients: Yes
  Cmax > 2500 ng/dL <2% patients: Yes
  Cmax > 2500 ng/dL none of patients: Yes
[11]
  Cavg > 300 ng/dL ≥75% patients: No
  Cavg > 300 ng/dL ≥80% patients: No
  Cmax > 1500 ng/dL <15% patients: Yes
  Cmax > 1500 ng/dL <20% patients: Yes
  Cmax > 1800 ng/dL <5% patients: Yes
  Cmax > 1800 ng/dL <10% patients: Yes
  Cmax > 2500 ng/dL <2% patients: Yes
  Cmax > 2500 ng/dL none of patients: Yes
